The target in one data set is T1, human EAAT3 (Homo sapiens, UniProt P43005).
T1 construct: expressed in transfected cells
T1 sequence (P43005 1-524): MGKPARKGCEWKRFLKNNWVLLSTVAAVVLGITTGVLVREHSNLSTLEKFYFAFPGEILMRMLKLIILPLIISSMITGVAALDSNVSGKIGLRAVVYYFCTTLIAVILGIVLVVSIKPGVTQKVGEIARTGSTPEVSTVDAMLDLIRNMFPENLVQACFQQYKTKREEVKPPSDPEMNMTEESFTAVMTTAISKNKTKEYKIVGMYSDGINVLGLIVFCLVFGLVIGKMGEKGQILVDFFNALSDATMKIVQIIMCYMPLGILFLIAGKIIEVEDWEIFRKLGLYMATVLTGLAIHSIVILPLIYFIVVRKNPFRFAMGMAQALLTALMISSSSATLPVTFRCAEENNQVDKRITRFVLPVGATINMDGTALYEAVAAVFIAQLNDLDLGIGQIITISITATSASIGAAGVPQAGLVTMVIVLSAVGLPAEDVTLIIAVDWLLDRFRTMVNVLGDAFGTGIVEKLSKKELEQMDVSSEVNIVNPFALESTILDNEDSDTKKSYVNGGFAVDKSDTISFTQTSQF
The data set can be described thus: FLIPR Membrane Potential (FMP) assay, antagonist potency at human EAAT3. The class given is cell-based. The conditions noted are these: HEK-293 cells stably expressing human EAAT3; L-glutamate as agonist at EC80; antagonist applied 15 min before; Kb by Cheng-Prusoff from IC50. How it is done:
The FLIPR Membrane Potential (FMP) Assay
HEK-293 cells stably expressing human EAAT3 were seeded at 55 000 cells/well in growth medium (DMEM glutamate free (Invitrogen 11960-044), 1% Pen Strep (10 ml/l GIBCO BRL No 15140-023), 10% FCS non dialysed heat inactivated, 5 mg/l puromycin) in poly-D-lysine treated 96-well black microtiter plates with clear-bottom. After 24 h, the growth medium was removed and 100 μl/well of Krebs buffer (140 mM NaCl, 4.7 mM KCl, 2.5 mM CaCl2, 1.2 mM MgCl2, 11 mM HEPES, 10 mM D-glucose, pH=7.4) added. The cells were then loaded by adding 100 μl/well FMP assay dye (FLIPR Membrane Potential assay reagent, Molecular Devices). The 96-well plates were then incubated at 37° C. for 1 h. The depolarization of the cells will cause more dye to enter in the cells, where it will bind to intracellular proteins and lipids and cause an increase in the fluorescence signal. Antagonist potency at human EAAT3 was determined by using L-glutamate as agonist at a concentration which gives 80% of the maximum response. The antagonists were applied 15 min before the application of the agonist L-glutamate. The assays were performed at room temperature and measurements done by using a Fluorometric Imaging Plate Reader (FLIPR, Molecular Devices) and filter #2. Responses were measured as peak increase in fluorescence minus basal (i.e. fluorescence without addition of L-glutamate). Kb was determined using the Cheng-Prusoff equation Kb=IC50/[1+(A/EC50)], where IC50 is the concentration of the antagonist producing 50% inhibition, A is the concentration of the agonist against which the IC50 is being determined (at EC80) and EC50 is the concentration of the agonist producing 50% […].

The values that follow come from patent publication US10092546B2, “Imidazole derivatives” (Hoffman-La Roche Inc., priority 2015, dated 2018).

Consider `CC(C)c1nccn1-c1cc(C(=O)NC(C)(C)C)cc(-c2ccc(F)cc2)n1` [Example 2, N-tert-Butyl-2-(4-fluorophenyl)-6-(2-propan-2-yl-imidazol-1-yl)-pyridine-4-carboxamide], for which the melting point worked out at 199 °C. Also, the antagonist equilibrium constant (Kb) at human EAAT3 amounted to 110 nM.
The matching figures for `CC(C)(C)NC(=O)c1cc(-c2ccc(F)cc2)nc(-n2ccnc2CO)c1` [Example 14, N-tert-Butyl-2-(4-fluorophenyl)-6-[2-(hydroxymethyl)-imidazol-1-yl]-pyridine-4-carboxamide]: 212 °C and 370 nM.
In the case of `CC(C)(C)c1nccn1-c1cc(C(=O)NC(C)(C)C2CC2)cc(-c2ccc(Cl)cc2)n1` [Example 17, 2-(2-tert-Butylimidazol-1-yl)-6-(4-chlorophenyl)-N-(2-cyclopropyl-propan-2-yl)-pyridine-4-carboxamide], the Kb on human EAAT3 was 280 nM.
The compound `CC(C)(C)NC(=O)c1cc(-c2ccc(F)cc2)nc(-n2ccnc2C(C)(C)O)c1` [Example 18, N-tert-Butyl-2-(4-fluorophenyl)-6-[2-(2-hydroxypropan-2-yl)-imidazol-1-yl]-pyridine-4-carboxamide] yielded an antagonist dissociation constant (Kb) at human EAAT3 of 100 nM.
Still for that read-out and setting: in the case of `CC(C)(C)NC(=O)c1cc(-c2ccc(C(F)(F)F)cc2)nc(-n2ccnc2C(C)(C)C)c1` [Example 19, N-tert-Butyl-2-(2-tert-butylimidazol-1-yl)-6-[4-(trifluoromethyl)-phenyl]-pyridine-4-carboxamide] it was 180 nM; in that of `CC(C)(C)NC(=O)c1cc(-c2ccc(C(F)(F)F)cc2)nc(-n2ccnc2C2CC2)c1` [Example 20, N-tert-Butyl-2-(2-cyclopropyl-imidazol-1-yl)-6-[4-(trifluoromethyl)-phenyl]-pyridine-4-carboxamide], 290 nM; in that of `Cc1nccn1-c1cc(C(=O)NC(C)(C)C)cc(-c2ccc(C(F)(F)F)cc2)n1` [Example 21, N-tert-Butyl-2-(2-methyl-imidazol-1-yl)-6-[4-(trifluoromethyl)-phenyl]-pyridine-4-carboxamide], 650 nM.
Still for that read-out and setting: in the case of `CC(C)(C)NC(=O)c1cc(-c2ccc(Cl)cc2)nc(-n2ccnc2CO)c1` [Example 22, N-tert-Butyl-2-(4-chlorophenyl)-6-[2-(hydroxymethyl)-imidazol-1-yl]-pyridine-4-carboxamide] it was 500 nM; in that of `CC(C)c1nccn1-c1cc(C(=O)NC(C)(C)C(F)(F)F)cc(-c2ccc(Cl)cc2)n1` [Example 23, 2-(4-Chlorophenyl)-6-(2-propan-2-yl-imidazol-1-yl)-N-(1,1,1-trifluoro-2-methylpropan-2-yl)-pyridine-4-carboxamide], 320 nM; in that of `CC(C)(NC(=O)c1cc(-c2ccc(Cl)cc2)nc(-n2ccnc2C2CC2)c1)C(F)(F)F` [Example 24, 2-(4-Chlorophenyl)-6-(2-cyclopropyl-imidazol-1-yl)-N-(1,1,1-trifluoro-2-methylpropan-2-yl)-pyridine-4-carboxamide], 510 nM.
The compound `CC(C)(C)c1nccn1-c1cc(C(=O)NC(C)(C)C(F)(F)F)cc(-c2ccc(Cl)cc2)n1` [Example 25, 2-(2-tert-Butylimidazol-1-yl)-6-(4-chlorophenyl)-N-(1,1,1-trifluoro-2-methylpropan-2-yl)-pyridine-4-carboxamide] returned a melting point of 225 °C. The Kb at human EAAT3 was 260 nM.
With `CC(C)(C)NC(=O)c1cc(-c2ccc(F)c(F)c2)nc(-n2ccnc2C(C)(C)C)c1` [Example 26, N-tert-Butyl-2-(2-tert-butyl-imidazol-1-yl)-6-(3,4-difluorophenyl)-pyridine-4-carboxamide], the melting point stood at 244 °C. Also, the Kb on human EAAT3 turned out to be 370 nM.
The corresponding values for `Cc1ccc(-c2cc(C(=O)NC(C)(C)C)cc(-n3ccnc3C(C)(C)C)n2)cc1` [Example 27, N-tert-Butyl-2-(2-tert-butyl-imidazol-1-yl)-6-(4-methylphenyl)-pyridine-4-carboxamide] are 232 °C and 110 nM.
For `CC(C)(C)NC(=O)c1cc(-c2ccc(C3CC3)cc2)nc(-n2ccnc2C(C)(C)C)c1` [Example 28, N-tert-Butyl-2-(2-tert-butyl-imidazol-1-yl)-6-(4-cyclopropyl-phenyl)-pyridine-4-carboxamide], the melting point is 226 °C. Moreover, the Kb on human EAAT3 was found to be 670 nM.
With `Cc1cc(-c2cc(C(=O)NC(C)(C)C)cc(-n3ccnc3C(C)(C)C)n2)ccc1F` [Example 29, N-tert-Butyl-2-(2-tert-butyl-imidazol-1-yl)-6-(4-fluoro-3-methyl-phenyl)-pyridine-4-carboxamide], the antagonist equilibrium constant (Kb) at human EAAT3 was found to be 150 nM.
The same measure, in the same setting: the figure for `CC(C)c1nccn1-c1cc(C(=O)NC(C)(C)CO)cc(-c2ccc(Cl)cc2)n1` [Example 30, 2-(4-Chlorophenyl)-N-(1-hydroxy-2-methylpropan-2-yl)-6-(2-propan-2-yl-imidazol-1-yl)-pyridine-4-carboxamide] is 190 nM.
`COc1ccc(-c2cc(C(=O)NC(C)(C)C)cc(-n3ccnc3C(C)(C)C)n2)cc1` [Example 31, N-tert-Butyl-2-(2-tert-butyl-imidazol-1-yl)-6-(4-methoxy-phenyl)-pyridine-4-carboxamide] had a melting point of 235 °C. The compound further came in with an antagonist dissociation constant (Kb) on human EAAT3 of 240 nM.
The matching figures for `CC(C)(C)NC(=O)c1cc(-c2ccc(C#N)cc2)nc(-n2ccnc2C(C)(C)C)c1` [Example 32, N-tert-Butyl-2-(2-tert-butyl-imidazol-1-yl)-6-(4-cyano-phenyl)-pyridine-4-carboxamide]: 245 °C and 290 nM.
With `CC(C)(C)NC(=O)c1cc(-c2ccc(Cl)cc2)nc(-n2ccnc2C(C)(C)O)c1` [Example 33, N-tert-Butyl-2-(4-chlorophenyl)-6-[2-(2-hydroxypropan-2-yl)-imidazol-1-yl]-pyridine-4-carboxamide], at human EAAT3, the Kb stood at 170 nM.
On to `CC(C)(C)NC(=O)c1cc(-c2ccc(C(F)(F)F)cc2)nc(-n2ccnc2C(C)(C)O)c1` [Example 34, N-tert-Butyl-2-[2-(2-hydroxypropan-2-yl)-imidazol-1-yl]-6-[4-(trifluoromethyl)-phenyl]-pyridine-4-carboxamide], for which, at human EAAT3, the Kb stood at 240 nM.
On the same count and under the same terms, the figure for `CC(C)(O)c1nccn1-c1cc(C(=O)NC(C)(C)C2CC2)cc(-c2ccc(Cl)cc2)n1` [Example 35, 2-(4-Chlorophenyl)-N-(2-cyclopropylpropan-2-yl)-6-[2-(2-hydroxypropan-2-yl)-imidazol-1-yl]-pyridine-4-carboxamide] is 150 nM; for `CC(C)(O)c1nccn1-c1cc(C(=O)NC(C)(C)C(F)(F)F)cc(-c2ccc(Cl)cc2)n1` [Example 36, 2-(4-Chlorophenyl)-6-[2-(2-hydroxypropan-2-yl)-imidazol-1-yl]-N-(1,1,1-trifluoro-2-methylpropan-2-yl)-pyridine-4-carboxamide] it is 78 nM; for `CC(C)(C#N)NC(=O)c1cc(-c2ccc(Cl)cc2)nc(-n2ccnc2C(C)(C)C)c1` [Example 37, 2-(2-tert-Butylimidazol-1-yl)-6-(4-chlorophenyl)-N-(2-cyanopropan-2-yl)-pyridine-4-carboxamide] it is 96 nM.
On the same count and under the same terms, the figure for `CCC(C)(C)NC(=O)c1cc(-c2ccc(F)cc2)nc(-n2ccnc2C(C)C)c1` [Example 39, 2-(4-Fluorophenyl)-N-(2-methylbutan-2-yl)-6-(2-propan-2-ylimidazol-1-yl)-pyridine-4-carboxamide] is 69 nM; for `CC(C)c1nccn1-c1cc(C(=O)NC(C)(C)C#N)cc(-c2ccc(Cl)cc2)n1` [Example 40, 2-(4-Chlorophenyl)-N-(2-cyanopropan-2-yl)-6-(2-propan-2-yl-imidazol-1-yl)-pyridine-4-carboxamide] it is 360 nM.
